Like-named read-outs stand apart in the source and are kept apart here.
Legend:
[1] = test system: HT29 cell line; assay: BrdU cell growth inhibition, HT29; type: cell-based, human; conditions: for GI50: read-out: GI50; for activity at 0.05 µM / activity at 0.5 µM / activity at 5 µM: HT-29, read-out: HT-29 Growth, % of Control Mean, n = 3; for activity at 0.05 µM: 50 nM; for activity at 0.5 µM: 500 nM
Procedure: (§1) The GI50s for several of the compounds of the invention were assayed as described herein.
The HT29 cell line is a NCI standard human colon carcinoma cell line.
(§2) In the BrdU Assay for cell growth inhibition, quantitation of cell proliferation was based on the measurement of BrdU incorporation during DNA synthesis. The Cell Proliferation ELISA BrdU assay kit (colorimetric) was obtained from Roche Applied Science and performed as per vendor instructions.
(§3) The growth inhibition (GI) is determined from the formula GI=(T0−Tn×100/T0−CONn) where T0 is the BrdU growth of untreated cells at time “0”, Tn is the BrdU growth of treated cells at day “n” and CONn is the control BrdU growth of control cells at day “n”. The GI50 was extrapolated and the data plotted using XL-Fit 4.0 software.
(§4) For 96 well culture plate experiments, c-Src 3T3 medium was supplemented with 10 mM HEPES buffer. HT-29 cells were seeded in standard tissue culture 96-well plates and c-Src 3T3 cells were seeded in 96-well plates coated with Poly-D-lysine (BIOCOAT™). To increase CO2 diffusion, c-Src 3T3 96-well plates were incubated with their lids raised by ˜2 mm using sterile rubber caps.
(§5) Samples were reconstituted in DMSO at 20 mM and intermediate dilutions made using DMEM containing 10% FBS. […] Plates were assayed for BrdU and the data analyzed as above for GI50.
(§6) All compounds were initially prepared as 20 mM DMSO stock solutions and then diluted into buffer for the in vitro tumor growth assays. NG means no cell growth beyond the control and T means the number of cells in the drug treated wells was less than in the control (i.e. net cell loss).
Growth Inhibition. […] T1 values≤T0 values were designated as T, cytotoxicity.

[2] = test system: c-Src 3T3 cells; assay: BrdU cell growth inhibition, c-Src 3T3; type: cell-based, mouse; conditions: Mus musculus; for GI50: c-Src 3T3 (c-Src527F/NIH3T3) cells, read-out: GI50; for activity at 0.1 µM / activity at 1 µM / activity at 10 µM: NIH3T3, read-out: c-Src 3T3 Growth, % of Control Mean, n = 3; for activity at 0.1 µM: 100 nM
Procedure: as §1
The cells were routinely cultured in DMEM supplemented with Fetal Bovine Serum (2.0% v/V), L-glutamine (2 mM) and Sodium Pyruvate (1 mM).
as §2, §3, §4, §5, §6

[3] = Homo sapiens, HT-29, HT29 (Colon) cells

Compound	GI50 [1, 3]	GI50 [2]	activity at 0.05 µM ([1]; Homo sapiens)	activity at 0.5 µM ([1]; Homo sapiens)	activity at 5 µM ([1]; Homo sapiens)	activity at 0.1 µM [2]	activity at 1 µM [2]	activity at 10 µM [2]	GI50 ([1]; HT29 (Colon) cells)
CN1CCN(CCOc2cc(OC3CCOCC3)c3c(Nc4c(Cl)ccc5c4OCO5)ncnc3c2)CC1 [AZD0530, reference compound]	330 nM	203 nM							
O=C(Cc1ccc(-c2ccccc2)cc1)NCc1cc(O)cc(OCc2ccccc2)c1 [KX1-306]			124%	< 0%	< 0%	47%	< 0%	< 0%	
O=C(Cc1cccc(-c2ccccc2)c1)NCc1cccc(F)c1 [KX1-307]			85.9%	93.8%	39.4%	65.7%	45.3%	4.2%	
O=C(Cc1ccc(-c2ccccc2)cc1)Nc1cccc(F)c1 [KX1-308, N-(3-fluorophenyl)-4-biphenylacetamide]			87.9%	76.1%	32.3%	94.5%	77.7%	67.1%	
O=C(Cc1ccc(-c2ccccc2F)cc1)NCc1cccc(F)c1 [KX1-309]			29.5%	< 0%	< 0%	< 0%	< 0%	< 0%	
O=C(Cc1ccc(-c2cccc(F)c2)cc1)NCc1cccc(F)c1 [KX1-310, N-(3-fluorobenzyl)-4-(3-fluorophenyl)phenylacetamide]			93.3%	< 0%	< 0%	102%	< 0%	< 0%	
O=C(Cc1ccc(-c2ccc(F)cc2)cc1)NCc1cccc(F)c1 [KX1-311, N-(3-fluorobenzyl)-4-(4-fluorophenyl)phenylacetamide]			60.4%	< 0%	< 0%	81.3%	< 0%	< 0%	
CN(Cc1cccc(F)c1)C(=O)Cc1ccc(-c2ccccc2)cc1 [KX1-312, N-(3-fluorobenzyl)-N-methyl-4-biphenylacetamide]			93.7%	67.6%	33.7%	98.5%	94.5%	12.1%	
O=C(Cc1ccc(-c2ccccc2)cc1F)NCc1cccc(F)c1 [KX1-313, N-(3-fluorobenzyl)-4-phenyl-2-fluorophenylacetamide]			80.2%	< 0%	< 0%	91.6%	< 0%	< 0%	
O=C(Cc1ccc(-c2ccccc2)nc1)NCc1cccc(F)c1 [KX1-314, N (3-fluorobenzyl)-2-phenylpyridine-5-acetamide]			53.2%	83.7%	14.4%	93.6%	88.4%	39.3%	
O=C(Cc1ccc(-c2ccccn2)cc1)NCc1cccc(F)c1 [KX1-315, N-(3-Fluoro-benzyl)-2-(4-pyridin-2-yl-phenyl)-acetamide]			66%	50.3%	< 0%	89.3%	88.1%	< 0%	
O=C(Cc1ccc(-c2cccnc2)cc1)NCc1cccc(F)c1 [KX1-316]		> 200 nM	77.8%	45.1%	< 0%	88.2%	< 0%	< 0%	
O=C(Cc1ccc(-c2cccc(Cl)c2)nc1)NCc1cccc(F)c1 [KX1-317, 2-[6-(3-Chloro-phenyl)-pyridin-3-yl]-N-(3-fluoro-benzyl)-acetamide]			83.5%	64%	< 0%	94.2%	85.6%	< 0%	
CCc1ccc(-c2ccc(CC(=O)NCc3cccc(F)c3)cn2)cc1 [KX1-318, 2-[6-(4-Ethyl-phenyl)-pyridin-3-yl]-N-(3-fluoro-benzyl)-acetamide]			165%	93.2%	< 0%	91.4%	71%	< 0%	
O=C(Cc1ccc(-c2ccccc2)c(F)c1)NCc1cccc(F)c1 [KX1-319, N-(3-Fluoro-benzyl)-2-(2-fluoro-biphenyl-4-yl)-acetamide]			101%	< 0%	< 0%	88.2%	< 0%	< 0%	
O=C(Cc1ccc(-c2ccc(F)cc2)nc1)NCc1cccc(F)c1 [KX1-320, N-(3-Fluoro-benzyl)-2-[6-(4-fluoro-phenyl)-pyridin-3-yl]-acetamide]			111%	132%	86.2%	90.4%	86.5%	73.1%	
O=C(Cc1ccc(-c2cccc(F)c2)nc1)NCc1cccc(F)c1 [KX1-321, N-(3-Fluoro-benzyl)-2-[6-(3-fluoro-phenyl)-pyridin-3-yl]-acetamide]			127%	118%	23.7%	95.5%	96.2%	55.8%	
CCOc1cccc(-c2ccc(CC(=O)NCc3cccc(F)c3)cn2)c1 [KX1-322, 2-[6-(3-Ethoxy-phenyl)-pyridin-3-yl]-N-(3-fluoro-benzyl)-acetamide]		3730 nM	114%	87.2%	< 0%	94.6%	< 0%	< 0%	
O=C(Cc1ccc(-c2ccc(C(=O)O)cc2)nc1)NCc1cccc(F)c1 [KX1-323, 4-{5-[(3-Fluoro-benzylcarbamoyl)-methyl]-pyridin-2-yl}-benzoic acid]			106%	107%	60.8%	96.6%	97.3%	93.2%	
CCOc1ccccc1-c1ccc(CC(=O)NCc2cccc(F)c2)cn1 [KX1-324, 2-[6-(2-Ethoxy-phenyl)-pyridin-3-yl]-N-(3-fluoro-benzyl)-acetamide]			91%	95.7%	0%	96%	90%	< 0%	
CCOc1ccc(-c2ccc(CC(=O)NCc3cccc(F)c3)cn2)cc1 [KX1-325, 2-[6-(4-Ethoxy-phenyl)-pyridin-3-yl]-N-(3-fluoro-benzyl)-acetamide]	215 nM	207 nM	85%	< 0%	< 0%	97.6%	54.2%	< 0%	
CS(=O)(=O)c1ccc(-c2ccc(CC(=O)NCc3cccc(F)c3)cn2)cc1 [KX1-326, N-(3-Fluoro-benzyl)-2-[6-(4-methanesulfonyl-phenyl)-pyridin-3-yl]-acetamide]			65.4%	73.2%	43.7%	92.2%	87.3%	55.7%	
O=C(Cc1ccc(-c2ccncc2)cc1)NCc1cccc(F)c1 [KX1-327]	680 nM	> 200 nM	31.6%	< 0%	< 0%	81.3%	< 0%	< 0%	
O=C(Cc1ccc(-c2cc[n+]([O-])cc2)cc1)NCc1cccc(F)c1 [KX1-357]						101%	95.4%	9%	
CCOc1ccc(-c2ccc(CC(=O)NCc3cccc(F)c3)c[n+]2[O-])cc1 [KX1-358, 2-[6-(4-Ethoxy-phenyl)-1-oxo-pyridin-3-yl]-N-(3-fluoro-benzyl)-acetamide]						92.2%	91.4%	82.7%	
CC(C)COc1cc(F)cc(CNC(=O)Cc2ccc(-c3ccc(CN4CCN(C)CC4)cc3)cn2)c1 [KX2-385]		232 nM							
O=C1[O][Pt]2([NH][C@@H]3CCCC[C@H]3[NH]2)[O]C1=O [oxaliplatin, reference compound]									1480 nM
